# Assays:
# [1] = test system: HBV viral product accumulation in 2.2.15 cells; assay: HBV antiviral activity in 2.2.15 cells (qPCR of cell lysates or HBsAg/HBeAg ELISA of supernatants, day 5); format: cell-based; details: Hepatitis B virus, 120 h, 5 days treatment, 0.5% DMSO, 50% reduction of viral product accumulation relative to no drug controls, irrespective of readout
# Description: 2.2.15 cells are passaged upon attaining confluency in DMEM/F12 media in the presence of 10% FBS, Penn/Strep, and 250 ug/mL G418. Novel compounds are 5 fold serially diluted in DMSO and added to 96 well plates containing 35,000 cells/well at a 1:200 dilution so that the final concentration of DMSO is 0.5%. On day 5, post treatment cell lysates and supernatants are harvested for analysis.
# Cells are lysed using Agilent Sidestep Lysis buffer, diluted 1:100 and quantified via quantitative real time PCR. Commercially available ELISA kits are used to quantitate the viral proteins HBsAg (Alpco) or HBeAg (US Biological) by following the manufacturer's recommended protocol after diluting samples to match the linear range of their respective assays. Irrespective of readout, compound concentrations that reduce viral product accumulation in the cell lysates or supernatants by 50% relative to no drug controls (EC50) are reported; EC50 ranges are as follows: A<0.1 μM; B 0.2-1 μM; C>1 μM.
# [2] = Compound induced cellular toxicity in HepG2 cells (ATPlite 1Step, total ATP levels, day 3); format: cell-based; details: human, three days, 0.5% DMSO, 50% reduction of total ATP levels relative to no drug controls
# Description: At day 3, post seeding cells are treated with ATPlite 1Step according to the manufacturer's instructions.
SMILES,EC50 [1],CC50 at 3 days [2]
"CC(C)(C)[C@@H]1Cn2nc(-c3ccc(F)cc3)cc2-c2cc(O)c(C(=O)O)cc21 [Example 1, (S)-6-(tert-butyl)-2-(4-fluorophenyl)-9-hydroxy-5,6-dihydropyrazolo[5,1-a]isoquinoline-8-carboxylic acid]",> 1000 nM,–
"CC(C)(C)[C@@H]1Cn2nc(-c3ccccc3)cc2-c2cc(O)c(C(=O)O)cc21 [Example 2, (S)-6-(tert-butyl)-9-hydroxy-2-phenyl-5,6-dihydropyrazolo[5,1-a]isoquinoline-8-carboxylic acid]",> 1000 nM,–
"CC(C)(C)[C@@H]1Cn2nc(-c3ccccc3F)cc2-c2cc(O)c(C(=O)O)cc21 [Example 3, (S)-6-(tert-butyl)-2-(2-fluorophenyl)-9-hydroxy-5,6-dihydropyrazolo[5,1-a]isoquinoline-8-carboxylic acid]",> 1000 nM,–
"CC(C)(C)[C@@H]1Cn2nc(-c3cccc(F)c3)cc2-c2cc(O)c(C(=O)O)cc21 [Example 4, (S)-6-(tert-butyl)-2-(3-fluorophenyl)-9-hydroxy-5,6-dihydropyrazolo[5,1-a]isoquinoline-8-carboxylic acid]",> 1000 nM,–
"CC(C)(C)[C@@H]1Cn2nc(-c3cccc(F)c3)c(-c3cccc(F)c3)c2-c2cc(O)c(C(=O)O)cc21 [Example 5, (S)-6-(tert-butyl)-1,2-bis(3-fluorophenyl)-9-hydroxy-5,6-dihydropyrazolo[5,1-a]isoquinoline-8-carboxylic acid]",> 1000 nM,–
"CC(C)(C)[C@@H]1Cn2nc(-c3ccc(F)cc3)c(-c3ccc(F)cc3)c2-c2cc(O)c(C(=O)O)cc21 [Example 6, (S)-6-(tert-butyl)-1,2-bis(4-fluorophenyl)-9-hydroxy-5,6-dihydropyrazolo[5,1-a]isoquinoline-8-carboxylic acid]",< 100 nM,> 25000 nM
"CC(C)(C)[C@@H]1Cn2nc(-c3ccccc3F)c(-c3ccccc3F)c2-c2cc(O)c(C(=O)O)cc21 [Example 7, (S)-6-(tert-butyl)-1,2-bis(2-fluorophenyl)-9-hydroxy-5,6-dihydropyrazolo[5,1-a]isoquinoline-8-carboxylic acid]",< 100 nM,> 25000 nM
"CC(C)(C)[C@@H]1Cn2nc(-c3ccccc3)c(-c3ccccc3)c2-c2cc(O)c(C(=O)O)cc21 [Example 8, (S)-6-(tert-butyl)-9-hydroxy-1,2-diphenyl-5,6-dihydropyrazolo[5,1-a]isoquinoline-8-carboxylic acid]",< 100 nM,> 25000 nM
"CC(C)(C)[C@@H]1Cn2nc(-c3ccoc3)c(-c3ccoc3)c2-c2cc(O)c(C(=O)O)cc21 [Example 9, (S)-6-(tert-butyl)-1,2-di(furan-3-yl)-9-hydroxy-5,6-dihydropyrazolo[5,1-a]isoquinoline-8-carboxylic acid]",> 1000 nM,–
